Laboratory results reported in patent US12421229B2, “Hydropyrido[1,2-α]pyrazine compounds for the treatment of autoimmune disease” (Hoffmann-La Roche Inc., priority 2019, dated 2025).

Molecular target: T1, human TLR9 (Homo sapiens, UniProt Q9NR96)
T1 construct: host or cells: HEK293 (HEK-Blue hTLR9)
T1 sequence (Q9NR96 26-1032): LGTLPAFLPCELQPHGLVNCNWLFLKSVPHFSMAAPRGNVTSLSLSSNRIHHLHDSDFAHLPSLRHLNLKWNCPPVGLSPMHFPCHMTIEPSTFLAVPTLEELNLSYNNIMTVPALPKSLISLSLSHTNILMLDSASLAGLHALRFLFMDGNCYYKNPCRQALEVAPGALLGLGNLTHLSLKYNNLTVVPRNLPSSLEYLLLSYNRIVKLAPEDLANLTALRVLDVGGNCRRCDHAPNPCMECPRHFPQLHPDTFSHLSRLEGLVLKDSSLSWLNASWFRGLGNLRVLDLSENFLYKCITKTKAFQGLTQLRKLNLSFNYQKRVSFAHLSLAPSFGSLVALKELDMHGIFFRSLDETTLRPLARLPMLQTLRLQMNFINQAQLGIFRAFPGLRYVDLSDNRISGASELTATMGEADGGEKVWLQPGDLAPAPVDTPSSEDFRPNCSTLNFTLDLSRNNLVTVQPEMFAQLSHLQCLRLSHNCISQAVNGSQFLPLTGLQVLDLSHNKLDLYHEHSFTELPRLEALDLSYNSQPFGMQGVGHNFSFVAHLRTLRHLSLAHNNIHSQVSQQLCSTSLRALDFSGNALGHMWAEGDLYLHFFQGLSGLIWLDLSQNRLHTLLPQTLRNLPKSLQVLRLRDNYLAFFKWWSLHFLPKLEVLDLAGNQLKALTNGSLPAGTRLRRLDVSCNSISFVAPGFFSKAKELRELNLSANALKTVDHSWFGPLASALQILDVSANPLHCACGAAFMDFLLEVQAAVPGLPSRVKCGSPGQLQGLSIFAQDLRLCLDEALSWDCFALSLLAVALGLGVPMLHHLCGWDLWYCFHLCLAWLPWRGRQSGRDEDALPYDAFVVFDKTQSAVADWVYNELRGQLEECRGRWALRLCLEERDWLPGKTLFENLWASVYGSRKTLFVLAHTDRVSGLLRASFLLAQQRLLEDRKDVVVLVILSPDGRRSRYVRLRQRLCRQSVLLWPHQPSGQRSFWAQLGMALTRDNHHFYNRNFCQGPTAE
Experiment: HEK293-Blue-hTLR-9 cells assay
Format: cell-based
Conditions: HEK293-Blue-hTLR9 cells, ODN2006 stimulation, 20 hrs, SEAP reporter; read-out: HEK/hTLR9 IC50
From the text: A stable HEK293-Blue-hTLR-9 cell line was purchased from InvivoGen (Cat. #: hkb-htlr9, San Diego, California, USA). These cells were originally designed for studying the stimulation of human TLR9 by monitoring the activation of NF-κB. A SEAP (secreted embryonic alkaline phosphatase) reporter gene was placed under the control of the IFN-β minimal promoter fused to five NF-κB and AP-1-binding sites. The SEAP was induced by activating NF-κB and AP-1 via stimulating HEK-Blue hTLR9 cells with TLR9 ligands. Therefore the reporter expression was declined by TLR9 antagonist under the stimulation of a ligand, such as ODN2006 (Cat. #: tlrl-2006-1, Invivogen, San Diego, California, USA), for incubation of 20 hrs. The cell culture supernatant SEAP reporter activity was determined using QUANTI-Blue™ kit (Cat. #: rep-qb1, Invivogen, San Diego, California, USA) at a wavelength of 640 nm, a detection medium that turns purple or blue in the presence of alkaline phosphatase.
HEK293-Blue-hTLR9 cells were incubated at a density of 250,000˜450,000 cells/mL in a volume of 170 μL in a 96-well plate in Dulbecco's Modified Eagle's medium (DMEM) containing 4.5 g/L glucose, 50 U/mL penicillin, […], 2 mM L-glutamine, 10% (v/v) heat-inactivated fetal bovine serum with addition of 20 μL test compound in a serial dilution in the presence of final DMSO at 1% and 10 μL of 20 uM ODN2006 in above DMEM, perform incubation under 37° C. in a CO2 incubator for 20 hrs. Then 20 μL of the supernatant from each well was incubated with 180 μL Quanti-blue substrate solution at 37° C. for 2 h and the absorbance was read at 620˜655 nm using a spectrophotometer. The signaling pathway that TLR9 activation leads to downstream NF-κB activation has been widely accepted, and therefore similar reporter assay was modified for evaluating TLR9 antagonist.

Compound	IC50
C[C@@H]1CN(c2ccc(C#N)c3ncccc23)C[C@@H]2C[C@H](c3ccc(N4CCNCC4)nc3)CCN21 (stereo in doubt) [Example 2, 5-[(4R,8R)-4-methyl-8-(6-piperazin-1-yl-3-pyridyl)-1,3,4,6,7,8,9,9a-octahydropyrido[1,2-a]pyrazin-2-yl]quinoline-8-carbonitrile]	81 nM
CO[C@H]1CN(c2ccc(C3CN([C@@H]4CCN5[C@@H](C4)CN(c4ccc(C#N)c6ncccc46)C[C@H]5C)C3)cc2)C[C@H]1N [Example 32, 5-[(4R,8R,9aS)-8-[3-[4-[(3R,4S)-3-amino-4-methoxy-pyrrolidin-1-yl]phenyl]azetidin-1-yl]-4-methyl-1,3,4,6,7,8,9,9a-octahydropyrido[1,2-a]pyrazin-2-yl]quinoline-8-carbonitrile]	33 nM
[2H]c1ccc2c(N3C[C@@H]4C[C@H](N5CCN(c6ccncc6)CC5)CCN4[C@H](C)C3)ccc(C#N)c2n1 [Example 37, 5-[(4R,8R,9aS)-4-methyl-8-[4-(4-pyridyl)piperazin-1-yl]-1,3,4,6,7,8,9,9a-octahydropyrido[1,2-a]pyrazin-2-yl]-2-deuterio-quinoline-8-carbonitrile]	34 nM
[2H]c1ccc2c(N3C[C@@H]4C[C@@H](N5CC(c6ccc(N7C[C@@H](N)[C@H](OC)C7)cc6)C5)CCN4[C@H](C)C3)ccc(C#N)c2n1 [Example 36]	32 nM
C[C@@H]1CN(c2ccc(C#N)c3ncccc23)C[C@@H]2C[C@@H](c3ccc(C4CNCCO4)cc3)CCN21 (stereo partly drawn) [Example 24, 5-[(4R,8S,9aS)-4-methyl-8-(4-morpholin-2-ylphenyl)-1,3,4,6,7,8,9,9a-octahydropyrido[1,2-a]pyrazin-2-yl]quinoline-8-carbonitrile]	82 nM
CO[C@H]1CN(c2ccc(O[C@H]3CCN4[C@@H](C3)CN(c3ccc(C#N)c5ncccc35)C[C@H]4C)cn2)C[C@H]1N [Example 28, 5-[(4R,8S,9aS)-8-[[6-[(3R,4S)-3-amino-4-methoxy-pyrrolidin-1-yl]-3-pyridyl]oxy]-4-methyl-1,3,4,6,7,8,9,9a-octahydropyrido[1,2-a]pyrazin-2-yl]quinoline-8-carbonitrile]	44 nM
C[C@@H]1CN(c2ccc(C#N)c3ncccc23)C[C@@H]2C[C@H](N3CC(c4ccc(N5CCNCC5)cc4)C3)CCN21 [Example 9, 5-[(4R,8R,9aS)-4-methyl-8-[3-(4-piperazin-1-ylphenyl)azetidin-1-yl]-1,3,4,6,7,8,9,9a-octahydropyrido[1,2-a]pyrazin-2-yl]quinoline-8-carbonitrile]	< 32 nM
C[C@@H]1CN(c2ccc(C#N)c3ncccc23)CC2C[C@H](c3ccc(N4CCNCC4)cc3)CCN21 (stereo partly drawn) [Example 3, 5-[(4R,8R)-4-methyl-8-(4-piperazin-1-ylphenyl)-1,3,4,6,7,8,9,9a-octahydropyrido[1,2-a]pyrazin-2-yl]quinoline-8-carbonitrile]	92 nM
C[C@@H]1CN(c2ccc(C#N)c3ncccc23)C[C@@H]2C[C@H](Nc3ccc(C[C@@H]4CNCCO4)cc3)CCN21 [Example 21, 5-[(4R,8R,9aS)-4-methyl-8-[4-[[(2R)-morpholin-2-yl]methyl]anilino]-1,3,4,6,7,8,9,9a-octahydropyrido[1,2-a]pyrazin-2-yl]quinoline-8-carbonitrile]	86 nM
CO[C@@H]1CN(c2ccc([C@@H]3CCN4[C@@H](C3)CN(c3ccc(C#N)c5ncccc35)C[C@H]4C)cn2)C[C@H]1N [Example 14, 5-[(4R,8R,9aS)-8-[6-[(3R,4R)-3-amino-4-methoxy-pyrrolidin-1-yl]-3-pyridyl]-4-methyl-1,3,4,6,7,8,9,9a-octahydropyrido[1,2-a]pyrazin-2-yl]quinoline-8-carbonitrile]	78 nM
C[C@@H]1CN(c2ccc(C#N)c3ncccc23)C[C@@H]2C[C@H](NCc3ccc(N4CCNCC4)cc3)CCN21 [Example 1, 5-[(4R,8R,9aS)-4-methyl-8-[(4-piperazin-1-ylphenyl)methylamino]-1,3,4,6,7,8,9,9a-octahydropyrido[1,2-a]pyrazin-2-yl]quinoline-8-carbonitrile]	< 32 nM
[2H]c1ccc2c(N3C[C@@H]4C[C@H](Nc5ccc(C[C@H]6CNCCO6)cc5)CCN4[C@H](C)C3)ccc(C#N)c2n1 [Example 34, 5-[(4R,8R,9aS)-4-methyl-8-[4-[[(2S)-morpholin-2-yl]methyl]anilino]-1,3,4,6,7,8,9,9a-octahydropyrido[1,2-a]pyrazin-2-yl]-2-deuterio-quinoline-8-carbonitrile]	57 nM
C[C@@H]1CN(c2ccc(C#N)c3ncccc23)C[C@@H]2C[C@H](c3ccc(N4CC(N)C4)nc3)CCN21 [Example 7, 5-[(4R,8R,9aS)-8-[6-(3-aminoazetidin-1-yl)-3-pyridyl]-4-methyl-1,3,4,6,7,8,9,9a-octahydropyrido[1,2-a]pyrazin-2-yl]quinoline-8-carbonitrile]	184 nM
